Biological target: T1, NA transporter (Rattus norvegicus, UniProt Q9WTR4)
T1 construct: synaptosomes from rat brain regions were freshly isolated; from tissue; host or cells: P2 synaptosome fraction from hypothalamus of male rat brain
Test: Noradrenalin uptake inhibition (NA-uptake) in synaptosomes
Format: biochemical
Conditions: rat hypothalamus synaptosomes
Source text: Tests on Noradrenalin Uptake Inhibition (NA-Uptake Inhibition)
In order to be able to carry out these in vitro studies, synaptosomes from rat brain regions were freshly isolated.

T1 sequence (Q9WTR4 1-597): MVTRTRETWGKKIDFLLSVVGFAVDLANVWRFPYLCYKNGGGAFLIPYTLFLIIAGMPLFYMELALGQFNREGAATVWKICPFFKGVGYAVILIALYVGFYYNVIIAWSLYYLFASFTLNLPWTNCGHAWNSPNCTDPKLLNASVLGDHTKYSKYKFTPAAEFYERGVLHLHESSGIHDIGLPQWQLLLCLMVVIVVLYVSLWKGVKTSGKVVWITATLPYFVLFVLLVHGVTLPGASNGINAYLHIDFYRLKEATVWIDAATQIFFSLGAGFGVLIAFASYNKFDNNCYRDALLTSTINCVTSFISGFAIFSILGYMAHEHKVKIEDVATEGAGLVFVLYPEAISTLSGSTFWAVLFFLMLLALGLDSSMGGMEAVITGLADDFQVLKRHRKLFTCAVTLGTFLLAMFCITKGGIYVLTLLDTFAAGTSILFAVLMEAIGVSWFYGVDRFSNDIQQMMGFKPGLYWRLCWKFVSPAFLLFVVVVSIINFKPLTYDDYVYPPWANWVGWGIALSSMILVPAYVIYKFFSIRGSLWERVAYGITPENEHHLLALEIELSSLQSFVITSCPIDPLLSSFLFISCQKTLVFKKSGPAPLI

Compound: O=C(NCC(c1ccccc1)c1ccccc1)C1=NOC2(CCN(S(=O)(=O)c3ccc(Cl)s3)CC2)C1 [Example 79, 8-(5-chloro-thiophene-2-sulphonyl)-1-oxa-2,8-diaza-spiro[4,5]dec-2-ene-3-carboxylic acid (2,2-diphenyl-ethyl)-amide]
- inhibition at 10 µM: 58%

Compound: O=C(NCCCn1ccnc1)C1=NOC2(CCN(S(=O)(=O)c3ccc(F)cc3)CC2)C1 [Example 142, 8-(4-fluoro-benzenesulphonyl)-1-oxa-2,8-diaza-spiro[4,5]dec-2-ene-3-carboxylic acid (3-imidazol-1-yl-propyl)-amide]
- inhibition at 10 µM: 49%

Compound: COC(=O)C(Cc1ccc(Cl)cc1)NC(=O)C1=NOC2(CCN(S(=O)(=O)c3ccc(OC)cc3)CC2)C1 (stereo not shown) [Example 200]
- NA-uptake, 10 μM, % inhibition: 43%

Compound: O=C(C1=NOC2(CCN(S(=O)(=O)c3cccc(C(F)(F)F)c3)CC2)C1)N1CCC(Cc2ccccc2)CC1 [Example 211, (4-benzyl-piperidin-l-yl)-[8-(3-trifluoromethyl-benzene-sulphonyl)-1-oxa-2,8-diaza-spiro[4,5]dec-2-en-3-yl]-methanone]
- NA-uptake, 10 μM, % inhibition: 49%

Compound: CC(C)CNC(=O)C1=NOC2(CCN(C(=O)c3ccc(F)cc3)CC2)C1 [Example 137, 8-(4-fluoro-benzoyl)-1-oxa-2,8-diaza-spiro[4,5]dec-2-ene-3-carboxylic acid isobutyl-amide]
- inhibition at 10 µM: 49%

Compound: O=C(NCc1cccs1)C1=NOC2(CCN(S(=O)(=O)c3ccc(Cl)cc3)CC2)C1 [Example 127, 8-(4-chloro-benzenesulphonyl)-1-oxa-2,8-diaza-spiro[4,5]dec-2-ene-3-carboxylic acid (thiophen-2-ylmethyl)-amide]
- inhibition at 10 µM: 51%

Compound: O=C(NCc1ccccc1)C1=NOC2(CCN(C(=O)COCc3ccccc3)CC2)C1 [Example 171, 8-(2-benzyloxy-acetyl)-1-oxa-2,8-diaza-spiro[4,5]dec-2-ene-3-carboxylic acid benzylamide]
- inhibition at 10 µM: 73%

Compound: O=C(NCCc1cccc(C(F)(F)F)c1)C1=NOC2(CCN(S(=O)(=O)c3ccc(F)cc3)CC2)C1 [Example 196]
- NA-uptake, 10 μM, % inhibition: 40%

Compound: O=C(NCc1cccs1)C1=NOC2(CCN(C(=O)c3ccc(F)c(Cl)c3)CC2)C1 [Example 184, 8-(3-chloro-4-fluorobenzoyl)-1-oxa-2,8-diaza-spiro[4,5]dec-2-ene-3-carboxylic acid (thiophen-2-ylmethyl)-amide]
- inhibition at 10 µM: 62%

Compound: CCOC(=O)CCNC(=O)C1=NOC2(CCN(S(=O)(=O)c3ccccc3Cl)CC2)C1 [Example 116, 3-{[8-(2-chloro-benzenesulphonyl)-1-oxa-2,8-diaza-spiro[4,5]dec-2-ene-3-carbonyl]-amino}-propionic acid ethyl ester]
- inhibition at 10 µM: 60%

Compound: O=C(C1=NOC2(CCN(S(=O)(=O)c3ccc(F)cc3)CC2)C1)N1CCN(C2CCCCCC2)CC1 [Example 218]
- NA-uptake, 10 μM, % inhibition: 44%

Compound: O=C(C1=NOC2(CCN(S(=O)(=O)Cc3ccccc3)CC2)C1)N1CC=C(c2ccc(F)cc2)CC1 [Example 215, [4-(4-fluoro-phenyl)-3,6-dihydro-2H-pyridin-1-yl]-(8-phenylmethanesulphonyl-1-oxa-2,8-diaza-spiro[4,5]dec-2-en-3-yl)-methanone]
- inhibition at 10 µM: 42%

Compound: O=C(NCc1cccs1)C1=NOC2(CCN(C(=O)c3cccc(Cl)c3F)CC2)C1 [Example 146, 8-(3-chloro-2-fluorobenzoyl)-1-oxa-2,8-diaza-spiro[4,5]dec-2-ene-3-carboxylic acid (thiophen-2-ylmethyl)-amide]
- inhibition at 10 µM: 61%

Compound: O=C(NCc1cccs1)C1=NOC2(CCN(C(=O)c3cccc4ccccc34)CC2)C1 [Example 192, 8-(naphthalene-1-carbonyl)-1-oxa-2,8-diaza-spiro[4,5]dec-2-ene-3-carboxylic acid (thiophen-2-ylmethyl)-amide]
- inhibition at 10 µM: 41%

Compound: COc1ccc(S(=O)(=O)N2CCC3(CC2)CC(C(=O)NC2CC2c2ccccc2)=NO3)cc1 (stereo not shown) [Example 182, 8-(4-methoxy-benzenesulphonyl)-1-oxa-2,8-diaza-spiro[4,5]dec-2-ene-3-carboxylic acid (2-phenyl-cyclopropyl)-amide]
- inhibition at 10 µM: 73%

Compound: CC(NC(=O)C1=NOC2(CCN(S(=O)(=O)c3ccc(F)cc3)CC2)C1)c1ccc([N+](=O)[O-])cc1 (stereo not shown) [Example 213, 8-(4-fluoro-benzenesulphonyl)-1-oxa-2,8-diaza-spiro[4,5]dec-2-ene-3-carboxylic acid [1-(4-nitro-phenyl)-ethyl]-amide]
- inhibition at 10 µM: 46%

Compound: O=C(NCC1CC1)C1=NOC2(CCN(C(=O)c3cc(C(F)(F)F)ccc3Cl)CC2)C1 [Example 120, 8-(2-chloro-5-trifluoromethyl-benzoyl)-1-oxa-2,8-diaza-spiro(4,5]dec-2-ene-3-carboxylic acid cyclopropylmethyl-amide]
- inhibition at 10 µM: 40%

Compound: O=C(OCc1ccccc1)N1CCN(C(=O)C2=NOC3(CCN(S(=O)(=O)c4ccc(F)cc4)CC3)C2)CC1 [Example 143]
- NA-uptake, 10 μM, % inhibition: 47%

Compound: O=C(NCc1ccccc1)C1=NOC2(CCN(C(=O)c3cccnc3Oc3ccccc3)CC2)C1 [Example 203, 8-(2-phenoxy-pyridine-3-carbonyl)-1-oxa-2,8-diaza-spiro[4,5]dec-2-ene-3-carboxylic acid benzylamide]
- inhibition at 10 µM: 58%

Compound: O=C(Nc1ccccc1)C1=NOC2(CCN(C(=O)c3ccc(Br)cc3)CC2)C1 [Example 181, 8-(4-bromo-benzoyl)-1-oxa-2,8-diaza-spiro[4,5]dec-2-ene-3-acarboxylic cid phenylamide]
- NA-uptake, 10 μM, % inhibition: 51%

Compound: Cc1cc(C(=O)N2CCC3(CC2)CC(C(=O)NCc2ccccc2)=NO3)c(C)o1 [Example 217, 8-(2,5-dimethyl-furan-3-carbonyl)-1-oxa-2,8-diaza-spiro[4,5]dec-2-ene-3-carboxylic acid benzylamide]
- inhibition at 10 µM: 40%

Compound: O=C(NC1CCCC1OCc1ccccc1)C1=NOC2(CCN(S(=O)(=O)c3cccc(C(F)(F)F)c3)CC2)C1 (stereo not shown) [Example 201, 8-(3-trifluoromethyl-benzenesulphonyl)-1-oxa-2,8-diaza-spiro[4,5]dec-2-ene-3-carboxylic acid (2-benzyloxy-cyclopentyl)-amide]
- inhibition at 10 µM: 58%

Compound: O=C(NCCc1ccc(F)cc1)C1=NOC2(CCN(S(=O)(=O)c3ccc(OC(F)(F)F)cc3)CC2)C1 [Example 129, 8-(4-trifluoromethoxy-benzenesulphonyl)-1-oxa-2,8-diaza-spiro[4,5]dec-2-ene-3-carboxylic acid [2-(4-fluorophenyl)-ethyl]-amide]
- inhibition at 10 µM: 43%

Compound: O=C(C1=NOC2(CCN(S(=O)(=O)c3ccc(F)cc3)CC2)C1)N1CCN(CCCc2ccccc2)CC1 [Example 186, [8-(4-fluoro-benzenesulphonyl)-1-oxa-2,8-diaza-spiro[4,5]dec-2-en-3-yl]-[4-(3-phenyl-propyl)-piperazin-1-yl]-methanone]
- inhibition at 10 µM: 63%

Compound: O=C(NCC1COc2ccccc2O1)C1=NOC2(CCN(S(=O)(=O)c3ccc(Cl)s3)CC2)C1 (stereo not shown) [Example 194, 8-(5-chloro-thiophene-2-sulphonyl)-1-oxa-2,8-diaza-spiro[4,5]dec-2-ene-3-carboxylic acid (2,3-dihydro-benzo[1,4]dioxin-2-ylmethyl)-amide]
- inhibition at 10 µM: 65%
